This test deals with T1, TGF-β1-α2M* complex (Homo sapiens, UniProt P01023).
T1 construct: was purified from pooled citrate-treate human plasma; from tissue; host or cells: pooled citrate-treated human plasma
T1 sequence (P01023 24-1474): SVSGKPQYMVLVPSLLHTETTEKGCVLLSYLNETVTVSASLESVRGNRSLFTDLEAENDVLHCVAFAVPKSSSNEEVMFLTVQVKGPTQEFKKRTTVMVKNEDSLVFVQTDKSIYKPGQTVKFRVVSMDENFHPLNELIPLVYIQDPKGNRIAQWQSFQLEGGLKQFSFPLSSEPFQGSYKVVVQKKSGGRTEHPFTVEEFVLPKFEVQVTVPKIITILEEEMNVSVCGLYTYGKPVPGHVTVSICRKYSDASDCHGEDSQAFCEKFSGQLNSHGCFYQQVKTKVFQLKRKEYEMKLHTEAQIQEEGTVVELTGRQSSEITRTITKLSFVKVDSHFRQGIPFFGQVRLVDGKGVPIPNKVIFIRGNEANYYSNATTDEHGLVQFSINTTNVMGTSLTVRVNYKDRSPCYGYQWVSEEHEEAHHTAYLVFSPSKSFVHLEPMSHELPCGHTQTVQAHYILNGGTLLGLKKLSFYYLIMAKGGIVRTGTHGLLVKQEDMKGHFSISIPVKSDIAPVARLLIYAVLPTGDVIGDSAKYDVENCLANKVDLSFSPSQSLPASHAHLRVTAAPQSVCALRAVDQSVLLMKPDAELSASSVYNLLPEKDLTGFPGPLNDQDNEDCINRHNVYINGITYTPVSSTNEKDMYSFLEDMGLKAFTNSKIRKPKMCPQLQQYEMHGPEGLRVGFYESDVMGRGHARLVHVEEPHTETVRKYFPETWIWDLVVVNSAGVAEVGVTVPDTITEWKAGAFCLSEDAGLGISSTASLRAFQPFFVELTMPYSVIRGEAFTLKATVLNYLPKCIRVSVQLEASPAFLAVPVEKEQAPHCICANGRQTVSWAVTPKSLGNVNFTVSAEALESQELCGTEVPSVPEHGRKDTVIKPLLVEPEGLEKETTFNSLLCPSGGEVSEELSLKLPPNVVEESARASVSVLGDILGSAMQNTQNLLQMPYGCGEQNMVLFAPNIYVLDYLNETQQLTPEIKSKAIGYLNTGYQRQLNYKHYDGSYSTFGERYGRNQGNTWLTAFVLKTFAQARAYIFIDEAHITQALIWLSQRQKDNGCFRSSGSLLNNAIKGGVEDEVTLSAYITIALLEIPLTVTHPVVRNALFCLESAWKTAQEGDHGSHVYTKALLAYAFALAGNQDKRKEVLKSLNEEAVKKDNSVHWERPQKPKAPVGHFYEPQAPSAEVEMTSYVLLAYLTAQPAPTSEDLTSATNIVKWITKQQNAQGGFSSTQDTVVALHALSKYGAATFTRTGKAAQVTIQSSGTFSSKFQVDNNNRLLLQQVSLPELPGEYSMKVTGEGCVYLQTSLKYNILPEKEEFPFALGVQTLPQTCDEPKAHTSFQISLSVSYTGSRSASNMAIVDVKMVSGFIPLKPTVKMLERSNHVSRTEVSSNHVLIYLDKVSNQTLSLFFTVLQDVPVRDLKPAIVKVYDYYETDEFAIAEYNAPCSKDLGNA
Briefly: Inhibition of 125I-TGF-β1 and α2M* complex formation (5% non-denaturing PAGE, autoradiography). The format is binding. The settings on record: ~1 nM 125I-TGF-β1, 10 μg α2M* in 0.05 ml, 30 min room temperature, non-denaturing PAGE; read-out: IC50 for inhibiting complex formation between TGF-β1 and α2M*. The procedure: Saturated and unsaturated fatty acids are present in plasma and tissues (25,26). The effects of various concentrations of saturated fatty acids on the formation of complexes between ^125I-TGF ? β1 and ? 2M* were examined. ^125I-TGF- ? 1 (1 nM) was incubated μg/ml) in the presence of various concentrations of n-caprylic acid ([…]), lauric acid (12 carbon atoms), myristic acid (14 carbon atoms), palmitic acid (16 carbon atoms) and stearic acid (18 carbon atoms). After 30 min at room temperature, the reaction mixture was analyzed by 5% non-denaturing PAGE and autoradiography, a standard method form determining complex formation between TGF-β and α2M* (12). […] At 100 μM, it inhibited 20% of the complex formation between TGF ? β1 and α2M*. Esterification consistently abolished the inhibitory activities of the fatty acids.
Complex formation of ^125I-TGF-β and ? 2M*—The reaction mixture contained 10 μg of . α2M*, ˜1 nM of ^125I-TGF- ? 1, ^125I-TGF ? β2 or ^125I-TGF ? acids (dissolved in 100% ethanol) in 0.05 ml of 50 mM HEPES-NaOH buffer, pH 7.4. The final concentration of ethanol in the reaction mixture was 0.5%. These fatty acids and fatty acid derivatives were soluble under the experimental conditions. After 30 min at room temperature, the complex formation of ^125I-TGF- ? and. α2M* was determined by 5% non-denaturing polyacrylamide gel electrophoresis (PAGE) or by 7.5% SDS-PAGE following cross-linking by 0.6 mM DSS. After electrophoresis, the gel was stained with Coomassie blue and analyzed by autoradiography. The ^125I-TGF- ? - ? 2M* complex which co-migrated with free ? 2M* was quantified using a PhosphoImager (Fuji).

The IC50 is the concentration that inhibits the measured activity by half.

As for `CC/C=C\C/C=C\C/C=C\CCCCCCCC(=O)O` [linolenic acid], the IC50 was 26 ± 3.1 µM.
